Assay results reported in ChEMBL document CHEMBL6120940, “Discovery of N-Aryl-N'-[4-(aryloxy)cyclohexyl]squaramide-Based Inhibitors of LXR/SREBP-1c Signaling Pathway Ameliorating Steatotic Liver Disease: Navigating the Role of SIRT6 Activation” (J Med Chem, 2024).
Active and inactive are the calls of the source. The calls are words filed in the database; no cut-off is given here.

Key:
HepG2 [1] = assay: Downregulation of FASN mRNA level in human HepG2 cells at 10 uM pretreated with compound for 30 mins followed by T0901317 addition and measured after 12 hrs by RT-qPCR analysis; format: functional, cell-based; details: time 12.5 hrs
Hepatocyte [2] = assay: Effect on Acox-1 gene expression in mouse hepatocyte; format: functional, cell-based
[3] = Stability in rat plasma measured after 120 mins by LC-MS/MS analysis; format: ADME, cell-free; details: read-out: Stability
HepG2 [4] = assay: Downregulation of ACACA expression in human HepG2 cells at 5 uM pretreated with compound for 30 mins followed by T0901317 addition and measured after 12 hrs in presence of compound C by immunoblot analysis; format: functional, cell-based; details: time 12.5 hrs
Hepatocyte [5] = assay: Effect on Acad-1 gene expression in mouse hepatocyte; format: functional, cell-based
[6] = AUC infinity in 16 hrs fasted ICR mouse at 2 mg/kg, iv measured upto 8 hrs by LC-MS/MS analysis; format: ADME, organism-based; details: in vivo
[7] = target: T1, Sterol regulatory element-binding protein 1 (Homo sapiens) (UniProt P36956); assay: Inhibition of SREBP-1c transcriptional activity in human HepG2 cells expressing LXRalpha/RXRalpha assessed as reduction in SRE-luciferase level at 10 uM pretreated with compound for 30 mins followed by T0901317 addition and measured after 12 hrs by Dual-Glo luciferase assay relative to control; format: cell-based; details: time 12.5 hrs
T1 sequence (whole entry): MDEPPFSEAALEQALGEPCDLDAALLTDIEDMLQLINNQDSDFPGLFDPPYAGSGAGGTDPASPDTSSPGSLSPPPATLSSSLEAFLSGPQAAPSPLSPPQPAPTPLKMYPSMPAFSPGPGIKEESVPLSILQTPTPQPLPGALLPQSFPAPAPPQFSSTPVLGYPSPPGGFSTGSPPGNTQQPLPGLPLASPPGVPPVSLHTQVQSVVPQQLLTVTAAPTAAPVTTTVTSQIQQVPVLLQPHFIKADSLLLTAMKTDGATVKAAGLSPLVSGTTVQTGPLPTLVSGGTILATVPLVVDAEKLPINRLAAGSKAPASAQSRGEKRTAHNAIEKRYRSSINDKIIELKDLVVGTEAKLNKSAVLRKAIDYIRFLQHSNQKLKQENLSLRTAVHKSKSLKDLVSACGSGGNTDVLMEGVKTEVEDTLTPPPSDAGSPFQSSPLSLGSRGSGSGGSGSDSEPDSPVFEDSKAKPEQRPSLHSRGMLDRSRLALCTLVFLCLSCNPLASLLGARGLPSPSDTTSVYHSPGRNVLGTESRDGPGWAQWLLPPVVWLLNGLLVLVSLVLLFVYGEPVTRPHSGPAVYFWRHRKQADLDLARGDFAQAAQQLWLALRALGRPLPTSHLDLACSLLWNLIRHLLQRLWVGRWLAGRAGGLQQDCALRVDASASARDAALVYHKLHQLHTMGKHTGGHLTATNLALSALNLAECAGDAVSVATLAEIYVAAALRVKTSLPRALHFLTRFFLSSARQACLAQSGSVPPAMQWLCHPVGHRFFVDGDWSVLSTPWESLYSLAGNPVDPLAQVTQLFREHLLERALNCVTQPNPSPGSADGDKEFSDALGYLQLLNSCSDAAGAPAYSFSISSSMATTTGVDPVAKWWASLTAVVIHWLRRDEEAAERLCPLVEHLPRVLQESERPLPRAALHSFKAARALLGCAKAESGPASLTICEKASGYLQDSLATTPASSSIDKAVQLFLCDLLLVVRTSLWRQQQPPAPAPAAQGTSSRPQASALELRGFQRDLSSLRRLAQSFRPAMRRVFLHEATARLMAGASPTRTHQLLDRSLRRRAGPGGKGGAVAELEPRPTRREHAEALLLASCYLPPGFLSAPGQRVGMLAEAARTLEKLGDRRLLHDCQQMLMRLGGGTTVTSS

[8] = target: NAD-dependent protein deacylase sirtuin-6 (Homo sapiens) (UniProt Q8N6T7); assay: Activation of recombinant SIRT6 (unknown origin) using fluoro-substrate peptide as substrate at 2.5 to 400 uM by fluorescence based analysis; details: filed as activator, dose 2.5-400 µM
NAD-dependent protein deacylase sirtuin-6 (Homo sapiens), sequence (Q8N6T7 whole entry): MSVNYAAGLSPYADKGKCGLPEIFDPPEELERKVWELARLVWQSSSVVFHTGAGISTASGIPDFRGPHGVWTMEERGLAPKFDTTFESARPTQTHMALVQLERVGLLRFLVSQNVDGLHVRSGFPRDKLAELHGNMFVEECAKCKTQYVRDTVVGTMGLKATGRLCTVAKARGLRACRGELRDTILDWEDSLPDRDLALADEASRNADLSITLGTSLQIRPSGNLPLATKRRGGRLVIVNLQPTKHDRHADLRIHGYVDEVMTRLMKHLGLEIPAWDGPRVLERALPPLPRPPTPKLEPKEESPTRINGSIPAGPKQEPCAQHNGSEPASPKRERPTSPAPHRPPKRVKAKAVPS

HepG2 [9] = assay: Downregulation of ACACA expression level in human HepG2 cells at 5 to 10 uM pretreated with compound for 30 mins followed by T0901317 addition and measured after 12 hrs by RT-qPCR analysis; format: functional, cell-based; details: dose 5-10 µM, time 12.5 hrs

remaining at 2 h [3]: 96.2%
AUC(0-inf) [6]: 2400 ng·h/mL
inhibition [7]: 27.7%
Activity [8]: Active
SMILES: COc1ccccc1Nc1c(N[C@H]2CC[C@H](Oc3ccc([N+](=O)[O-])cc3)CC2)c(=O)c1=O
Activity (HepG2 [1]): Active
Activity (Hepatocyte [2]): inactive
Activity (HepG2 [4]): inactive
Activity (Hepatocyte [5]): inactive
Activity (HepG2 [9]): Active
